Data as given in patent publication EP1145714A1, “DRUGS” (Takeda Chemical Industries, Ltd., priority 1998, dated 2000).

Legend:
[1] = system: acute and delayed vomiting induced by cisplatin in ferrets; assay: Acute and delayed vomiting induced by cisplatin in ferrets, oral dosing once or twice daily; assay type: in vivo; details: cisplatin 5 mg/kg i.p.; for Duration (in hour; mean ± SD) / Latency (in hour; mean ± SD) / On day 0 (0-24 hours): frequency of retching and vomiting (mean ± SD) / On day 0 (0-24 hours): number of ferrets with vomiting/ number of tested ferrets / On days 1-2(24-48 hours): frequency of retching and vomiting (mean ± SD) / On days 1-2(24-48 hours): number of ferrets with vomiting/ number of tested ferrets / Total frequency of retching and vomiting (on days 0~2; 0-72 hours): twice daily, under fasting
Experimental: Male 4 to 6 ferrets (1.2 to 2.2 kg) per one group were used. Cisplatin was intraperitoneally given at 5 mg/5ml/kg. 30 minutes prior to cisplatin administration and 24 and 48 hours after cisplatin administration, predetermined doses of the compound No. 3 were orally given in case of dosing once daily. 30 minutes prior to cisplatin administration and 12, 24, 36, 48 and 60 hours after cisplatin administration, predetermined doses of the compound No. 3 were orally given in case of dosing twice daily. 30 minutes prior to the dosing of the compound No. 3, a small amount of a feed was given to the animals in any of the cases. Similarly, a predetermined volume of 0.5 % methyl cellulose solution was similarly given orally to a control animal group under no fasting. A predetermined dose of ondansetron was orally given to the animals under fasting. To a control animal group of ondansetron, a predetermined volume of physiological saline was orally given to the animals under fasting. The frequency of vomiting was counted in number, up to 72 hours after cisplatin administration.
The compound No. 3 was suspended in 0.5 % methyl cellulose solution, for oral dosing at predetermined doses at a ratio of 1 ml per 1 kg body weight. An injection of ondansetron at 0.2 w/v % concentration was orally given at a predetermined volume. Additionally, 0.5 % methyl cellulose solution was orally given at a ratio of 1 ml per 1 kg body weight, while physiological saline was orally given at a ratio of 0.5 to 1.5 ml per 1 kg body weight. The data relating to the frequency of vomiting, the time period (latency) until first vomiting and the time period from the occurrence of vomiting to the termination thereof were statistically analyzed by the Dunnett test, with reference to the difference from the control group.
The acute vomiting suppression ratio, delayed vomiting suppression ratio and total vomiting suppression ratio were calculated by the following formula. [Frequency of retching or vomiting in control] - [Frequency of retching or vomiting in animals dosed with compound No. 3] / [Frequency of retching or vomiting in control] x 100 (%) [formula]

[2] = system: acute vomiting induced by a central emetic agent loperamide in dogs; assay: Acute vomiting induced by loperamide in dogs; assay type: in vivo, beagle dogs; details: 10 mg/kg p.o., loperamide 1 mg/kg subcutaneous
Experimental: 3 male or female beagle dogs (7.7 to 12.7 kg) per one group were used. Loperamide was subcutaneously given at 1 mg/ml/kg. 2.5 hours prior to loperamide administration, a small amount of a feed was given to the animals. 30 minutes thereafter, predetermined doses of the compound No. 3 were orally given. Similarly, 0.5 % methyl cellulose solution was orally given to a control animal group under no fasting. Predetermined doses of naloxone and ondansetron were given intravenously and orally, respectively to the animals under fasting, 30 minutes prior to loperamide administration. The frequency of vomiting was counted, up to 3 hours after loperamide administration. The compound No. 3 was dissolved in 0.5 % methyl cellulose solution, for oral dosing at a ratio of 0.25 to 1 ml per 1 kg body weight. Additionally, naloxone was intravenously given in a solution at a concentration of 0.05 % w/v. An injection of ondansetron at a concentration of 0.2 % w/v was orally given. Still additionally, 0.5 % methyl cellulose solution was orally given at a ratio of 1 ml per 1 kg body weight. The data relating to the frequency of vomiting, the latency and the time period from the occurrence of vomiting to the termination thereof were statistically analyzed by the Dunnett test, with reference to the difference from the control group.
The vomiting suppression ratio was calculated by the following formula. [Frequency of retching or vomiting in control] - [Frequency of retching or vomiting in animals dosed with compound No. 3] / [frequency of retching or vomiting in control] x 100 (%) [formula]

With `Cc1nccn1CC1CCc2c(c3ccccc3n2C)C1=O` (centres unmarked) [Ondansetron, ondansetron, reference compound] as the compound, how does the “Acute vomiting suppression ratio (0 to 24 hours after cisplatin dosing)” value ([1]; 1 mg/kg p.o. twice daily) read?
The value was 0 % NS.

And the “Delayed vomiting suppression ratio (24 to 72 hours after cisplatin dosing)” value ([1]; 1 mg/kg p.o. twice daily)?
Its value is 0 % NS.

What about the “Total vomiting suppression ratio (0 to 72 hours after cisplatin dosing)” value ([1]; 1 mg/kg p.o. twice daily) of the same compound?
Its value is 0 % NS.

What about the “Duration (in hour; mean ± SD)” value ([1]; 1 mg/kg × 2 p.o.) of the same compound?
The value was 56.5 ± 2.6 h.

What about the “Latency (in hour; mean ± SD)” value ([1]; 1 mg/kg × 2 p.o.) of the same compound?
Its value is 8.7 ± 0.9 h.

What about the “On day 0 (0-24 hours): frequency of retching and vomiting (mean ± SD)” value ([1]; 1 mg/kg × 2 p.o.) of the same compound?
Its value is 70.2 ± 25.2.

What about the “On day 0 (0-24 hours): number of ferrets with vomiting/ number of tested ferrets” value ([1]; 1 mg/kg × 2 p.o.) of the same compound?
The value was 5/5.

And the “On days 1-2(24-48 hours): frequency of retching and vomiting (mean ± SD)” value ([1]; 1 mg/kg × 2 p.o.)?
Its value is 327.4 ± 88.8.

And the “On days 1-2(24-48 hours): number of ferrets with vomiting/ number of tested ferrets” value ([1]; 1 mg/kg × 2 p.o.)?
Its value is 5/5.

What about the “Total frequency of retching and vomiting (on days 0~2; 0-72 hours)” value ([1]; 1 mg/kg × 2 p.o.) of the same compound?
The value was 397.6 ± 72.0.

And the “Acute vomiting suppression ratio (0 to 24 hours after cisplatin dosing)” value ([1]; 3 mg/kg p.o. twice daily)?
The value was 58 % NS.

And the “Delayed vomiting suppression ratio (24 to 72 hours after cisplatin dosing)” value ([1]; 3 mg/kg p.o. twice daily)?
Its value is 32 % NS.

What about the “Total vomiting suppression ratio (0 to 72 hours after cisplatin dosing)” value ([1]; 3 mg/kg p.o. twice daily) of the same compound?
The value was 36 % NS.

What about the “Duration (in hour; mean ± SD)” value ([1]; 3 mg/kg × 2 p.o.) of the same compound?
The value was 44.2 ± 8.4 h.

What about the “Latency (in hour; mean ± SD)” value ([1]; 3 mg/kg × 2 p.o.) of the same compound?
Its value is 15.7 ± 5.6 h.

What about the “On day 0 (0-24 hours): frequency of retching and vomiting (mean ± SD)” value ([1]; 3 mg/kg × 2 p.o.) of the same compound?
The value was 27.8 ± 13.1.

And the “On day 0 (0-24 hours): number of ferrets with vomiting/ number of tested ferrets” value ([1]; 3 mg/kg × 2 p.o.)?
The value was 4/6.

What about the “On days 1-2(24-48 hours): frequency of retching and vomiting (mean ± SD)” value ([1]; 3 mg/kg × 2 p.o.) of the same compound?
The value was 221.7 ± 62.9.

What about the “On days 1-2(24-48 hours): number of ferrets with vomiting/ number of tested ferrets” value ([1]; 3 mg/kg × 2 p.o.) of the same compound?
Its value is 6/6.

What about the “Total frequency of retching and vomiting (on days 0~2; 0-72 hours)” value ([1]; 3 mg/kg × 2 p.o.) of the same compound?
The value was 249.5 ± 74.2.

And the “Effect on vomiting (in words)” value [2]?
Its value is “did not suppress”.

What about the Vomiting suppression ratio [2] of the same compound?
The Vomiting suppression ratio was 3 % NS.

What about the “B: Frequency of vomiting (mean ± SD)” value ([2]; 3 hours) of the same compound?
Its value is 9.7 ± 2.7.

And the “C: Time period until first vomiting (minute; mean ± SD)” value ([2]; 3 hours)?
Its value is 0.50 ± 0.14 min.

And the “D: Duration of vomiting (minute; mean ± SD)” value ([2]; 3 hours)?
The value was 1.30 ± 0.11 min.

And the “Number of dogs with vomiting/number of tested dogs” value ([2]; 3 hours)?
The value was 3/3.
